Patent publication US20190211020A1 (Agency for Science, Technology and Research, priority 2012, published 2019)
Like-named read-outs stand apart in the source and are kept apart here. Blank lines part the entries; values can stand above or below the molecule they belong to.

Assays:
[1] = Pharmacokinetics assays (plasma and brain); format: in vivo; set-up: AUC(0-t) / AUC(0-inf): concentration or dose not given beside the values; settings: for AUC(0-t): read-out: Plasma AUC last; for Cmax: species, dose and route not given; for Plasma/Brain Ratio: in vivo
[2] = test system: eIF4E Ser209 phosphorylation in Hela cells; assay: MNK cell-based assay (AlphaScreen SureFire, eIF4E Ser209 phosphorylation); settings: Homo sapiens, read-out: IC50 Hela
Procedure, shortened: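 Hela cells (30,000/well) exposed to test compound in serum-free medium for 2 h at 37 °C, then lysed. Phospho-Ser209 eIF4E quantified by AlphaScreen SureFire; IC50 obtained by non-linear regression of signal versus log compound concentration.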

[3] = brain, read-out: Brain T1/2 (converted)
[4] = plasma, read-out: Plasma T1/2 (converted)
[5] = eIF4E Ser209 phosphorylation, Hela cells, 2 hours

Brain AUC inf ([1]; brain): 99 ng·h/g
Brain AUC last ([1]; brain): 71 ng·h/g
Brain Cmax ([1]; brain): 14.6 ng/g
half-life [1, 3]: 4.11 h
Tmax ([1]; brain, read-out: Brain Tmax): 0.25 h
Plasma/Brain Ratio [1]: 0.13
AUC(0-inf) ([1]; plasma): 536 ng·h/mL
AUC(0-t) ([1]; plasma): 527 ng·h/mL
half-life [1, 4]: 2.06 h
Tmax ([1]; plasma, read-out: Plasma Tmax): 0.25 h
Cmax ([1]; plasma): 227 ng/mL
SMILES: CN(C)C1CCN(C(=O)c2ccc(-c3cn4c(-c5ccc(C#N)cc5)cnc4cn3)cc2)CC1 [Entry 2]

Brain AUC inf ([1]; brain): 77 ng·h/g
Brain AUC last ([1]; brain): 59 ng·h/g
Brain Cmax ([1]; brain): 77.78 ng/g
half-life [1, 3]: 0.96 h
Tmax ([1]; brain, read-out: Brain Tmax): 0.25 h
Plasma/Brain Ratio [1]: 0.01
AUC(0-inf) ([1]; plasma): 4190 ng·h/mL
AUC(0-t) ([1]; plasma): 4120 ng·h/mL
half-life [1, 4]: 2.51 h
Tmax ([1]; plasma, read-out: Plasma Tmax): 0.25 h
Cmax ([1]; plasma): 3160 ng/mL
SMILES: CN1CCN(C(=O)c2ccc(-c3ccc4ncc(-c5ccc(C#N)cc5)n4c3)cc2)CC1=O [Entry 3]

Brain AUC last ([1]; brain): 184 ng·h/g
Brain Cmax ([1]; brain): 20 ng/g
Tmax ([1]; brain, read-out: Brain Tmax): 8 h
Plasma/Brain Ratio [1]: 0.3
AUC(0-inf) ([1]; plasma): 632 ng·h/mL
AUC(0-t) ([1]; plasma): 614 ng·h/mL
half-life [1, 4]: 2.38 h
Tmax ([1]; plasma, read-out: Plasma Tmax): 0.25 h
Cmax ([1]; plasma): 223 ng/mL
SMILES: CN1CCN(C2CCN(C(=O)c3ccc(-c4ccc5ncc(-c6ccc(C#N)cc6)n5c4)cc3)CC2)CC1 [Entry 4]

Brain AUC inf ([1]; brain): 2516 ng·h/g
Brain AUC last ([1]; brain): 2474 ng·h/g
Brain Cmax ([1]; brain): 678 ng/g
half-life [1, 3]: 2.05 h
Tmax ([1]; brain, read-out: Brain Tmax): 1 h
AUC(0-inf) ([1]; plasma): 26000 ng·h/mL
AUC(0-t) ([1]; plasma): 26000 ng·h/mL
half-life [1, 4]: 2.94 h
Tmax ([1]; plasma, read-out: Plasma Tmax): 0.25 h
Cmax ([1]; plasma): 7360 ng/mL
SMILES: N#Cc1ccc(-c2cnc3ccc(-c4ccc(C(=O)N5CCOCC5)cc4)cn23)cc1 [Entry 7]

IC50 [2, 5]: < 1000 nM
SMILES: Cc1cc(-c2ccc3ncc(-c4ccc(C#N)cc4)n3c2)ccc1C(=O)N1CCOCC1 [Example 156]

IC50 [2, 5]: < 1000 nM
SMILES: CN1CCN(C(=O)c2ccc(-c3ccc4ncc(-c5ccc(C#N)cc5)n4c3)cc2OC(F)(F)F)CC1 [Example 157]

IC50 [2, 5]: < 1000 nM
SMILES: N#Cc1ccc(-c2cnc3ccc(-c4ccc(C(=O)N5CCOCC5)c(N5CCOCC5)c4)cn23)cc1 [Example 160, 4-(6-[3-(morpholin-4-yl)-4-(morpholin-4-ylcarbonyl)phenyl]imidazo[1,2-a]pyridin-3-yl)benzonitrile]

IC50 [2, 5]: < 1000 nM
SMILES: CC1(N2CCOCC2)CCN(C(=O)c2ccc(-c3ccc4ncc(-c5ccc(C#N)cc5)n4c3)cc2)CC1 [Example 163, 4-(6-(4-(4-methyl-4-morpholinopiperidine-1-carbonyl)phenyl)imidazo [1,2-a]pyridin-3-yl)benzonitrile]

IC50 [2, 5]: < 1000 nM
SMILES: CN1CCN(C2(C)CCN(C(=O)c3ccc(-c4ccc5ncc(-c6ccc(C#N)cc6)n5c4)cc3)CC2)CC1 [Example 164, 4-(6-(4-(4-methyl-4-(4-methylpiperazin-1-yl)piperidine-1-carbonyl)phenyl)imidazo [1,2-a]pyridin-3-yl)benzonitrile]

IC50 [2, 5]: < 1000 nM
SMILES: N#Cc1ccc(-c2cnc3ccc(-c4ccc(C(=O)N5CCNCC5)cc4)cn23)cc1 [Example 165, 4-(6-(4-(piperazine-1-carbonyl)phenyl)imidazo [1,2-a]pyridin-3-yl)benzonitrile]

IC50 [2, 5]: < 1000 nM
SMILES: N#Cc1ccc(-c2cnc3ccc(-c4ccc(C(=O)N5CCOCC5)c(O)c4)cn23)cc1 [Example 167, 4-(6-(3-hydroxy-4-(morpholine-4-carbonyl)phenyl)imidazo[1,2-a]pyridin-3-yl)benzonitrile]

IC50 [2, 5]: < 1000 nM
SMILES: CNC1CCN(C(=O)c2ccc(-c3ccc4ncc(-c5ccc(C#N)cc5)n4c3)cc2NC(C)=O)CC1 [Example 169, N-(5-(3-(4-cyanophenyl)imidazo[1,2-a]pyridin-6-yl)-2-(4-(methylamino)piperidine-1-carbonyl)phenyl)acetamide]

IC50 [2, 5]: < 1000 nM
SMILES: COC1(C)CCN(C(=O)c2ccc(-c3ccc4ncc(-c5ccc(C#N)cc5)n4c3)cc2)CC1 [Example 172, 4-(6-(4-(4-methoxy-4-methylpiperidine-1-carbonyl)phenyl)imidazo[1,2-a]pyridin-3-yl)benzonitrile]

IC50 [2, 5]: < 1000 nM
SMILES: NC1CCN(C(=O)c2ccc(-c3ccc4ncc(-c5ccc(Cl)cc5)n4c3)cc2)CC1 [Example 174, (4-aminopiperidin-1-yl)(4-(3-(4-chlorophenyl)imidazo[1,2-a]pyridin-6-yl)phenyl)methanone]

IC50 [2, 5]: < 1000 nM
SMILES: CN1CCN(C2CCN(C(=O)c3ccc(-c4ccn5ncc(-c6ccc(C#N)cc6)c5n4)cc3)CC2)CC1 [Example 179, 4-(5-(4-(4-(4-methylpiperazin-1-yl)piperidine-1-carbonyl)phenyl)pyrazolo[1,5-a]pyrimidin-3-yl)benzonitrile]

More lines, now with the values behind:

SMILES: CN1CCN(C(=O)c2ccc(-c3cn4c(-c5ccc(C#N)cc5)cnc4cn3)cc2)CC1 [Entry 1]
Brain AUC inf ([1]; brain): 625 ng·h/g
Brain AUC last ([1]; brain): 520 ng·h/g
Brain Cmax ([1]; brain): 290 ng/g
half-life [1, 3]: 1.39 h
Tmax ([1]; brain, read-out: Brain Tmax): 0.5 h
AUC(0-inf) ([1]; plasma): 7440 ng·h/mL
AUC(0-t) ([1]; plasma): 7420 ng·h/mL
half-life [1, 4]: 3.02 h
Tmax ([1]; plasma, read-out: Plasma Tmax): 0.25 h
Cmax ([1]; plasma): 2670 ng/mL

SMILES: N#Cc1ccc(-c2cnc3ccc(-c4ccc(C(=O)N5CCOCC5)cc4)nn23)cc1 [Entry 5]
Brain AUC inf ([1]; brain): 8951 ng·h/g
Brain AUC last ([1]; brain): 8811 ng·h/g
Brain Cmax ([1]; brain): 1724 ng/g
half-life [1, 3]: 4.28 h
AUC(0-inf) ([1]; plasma): 76500 ng·h/mL
AUC(0-t) ([1]; plasma): 74700 ng·h/mL
half-life [1, 4]: 4.33 h
Cmax ([1]; plasma): 13400 ng/mL

SMILES: N#Cc1ccc(-c2cnc3ccc(-c4ccc(C(=O)N5CCNCC5)cc4)nn23)cc1 [Entry 6]
Brain AUC last ([1]; brain): 17 ng·h/g
Brain Cmax ([1]; brain): 10 ng/g
Tmax ([1]; brain, read-out: Brain Tmax): 0.25 h
Plasma/Brain Ratio [1]: 0.05
AUC(0-inf) ([1]; plasma): 359 ng·h/mL
AUC(0-t) ([1]; plasma): 350 ng·h/mL
half-life [1, 4]: 1.59 h
Tmax ([1]; plasma, read-out: Plasma Tmax): 0.25 h
Cmax ([1]; plasma): 275 ng/mL

SMILES: N#Cc1ccc(-c2cnn3ccc(-c4ccc(C(=O)N5CCOCC5)cc4)nc23)cc1 [Entry 8]
Brain AUC inf ([1]; brain): 29267 ng·h/g
Brain AUC last ([1]; brain): 29166 ng·h/g
Brain Cmax ([1]; brain): 3967 ng/g
half-life [1, 3]: 2.63 h
Tmax ([1]; brain, read-out: Brain Tmax): 2 h
Plasma/Brain Ratio [1]: 0.53
AUC(0-inf) ([1]; plasma): 55100 ng·h/mL
AUC(0-t) ([1]; plasma): 54800 ng·h/mL
half-life [1, 4]: 2.78 h
Tmax ([1]; plasma, read-out: Plasma Tmax): 0.5 h
Cmax ([1]; plasma): 5970 ng/mL

SMILES: CC(=O)Nc1cc(-c2ccc3ncc(-c4ccc(C#N)cc4)n3c2)ccc1C(=O)N1CCOCC1 [Entry 9]
Brain AUC inf ([1]; brain): 161 ng·h/g
Brain AUC last ([1]; brain): 156 ng·h/g
Brain Cmax ([1]; brain): 106 ng/g
half-life [1, 3]: 0.76 h
Tmax ([1]; brain, read-out: Brain Tmax): 0.5 h
Plasma/Brain Ratio [1]: 0.03
AUC(0-inf) ([1]; plasma): 5720 ng·h/mL
AUC(0-t) ([1]; plasma): 5720 ng·h/mL
half-life [1, 4]: 1.47 h
Tmax ([1]; plasma, read-out: Plasma Tmax): 0.25 h
Cmax ([1]; plasma): 3860 ng/mL

SMILES: COc1cc(-c2ccc3ncc(-c4ccc(C#N)cc4)n3c2)ccc1C(=O)N1CCOCC1 [Example 158]
IC50 [2, 5]: < 1000 nM

SMILES: N#Cc1ccc(-c2cnc3ccc(-c4ccc(C(=O)N5CCNCC5)c(O)c4)cn23)cc1 [Example 159, 4-(6-(3-hydroxy-4-(piperazine-1-carbonyl)phenyl)imidazo[1,2-a]pyridin-3-yl)benzonitrile]
IC50 [2, 5]: < 1000 nM

SMILES: N#Cc1ccc(-c2cnc3ccc(-c4ccc(C(=O)N5CCOCC5)c(F)c4)cn23)cc1 [Example 162, 4-(6-(3-fluoro-4-(morpholine-4-carbonyl)phenyl)imidazo [1,2-a]pyridin-3-yl)benzonitrile]
IC50 [2, 5]: < 1000 nM

SMILES: CC(=O)Nc1cc(-c2ccc3ncc(-c4ccc(C#N)cc4)n3c2)ccc1C(=O)N1CCOCC1 [Example 166, N-(5-(3-(4-cyanophenyl)imidazo[1,2-a]pyridin-6-yl)-2-(morpholine-4-carbonyl)phenyl)acetamide]
IC50 [2, 5]: < 1000 nM

SMILES: CC(=O)Nc1cc(-c2ccc3ncc(-c4ccc(C#N)cc4)n3c2)ccc1C(=O)N1CCNCC1 [Example 170, N-(5-(3-(4-cyanophenyl)imidazo[1,2-a]pyridin-6-yl)-2-(piperazine-1-carbonyl)phenyl)acetamide]
IC50 [2, 5]: < 1000 nM

SMILES: CC1(N)CCN(C(=O)c2ccc(-c3ccc4ncc(-c5ccc(Cl)cc5)n4c3)cc2)CC1 [Example 173, (4-amino-4-methylpiperidin-1-yl)(4-(3-(4-chlorophenyl)imidazo [1,2-a]pyridin-6-yl)phenyl)methanone]
IC50 ([2]; HeLa, 2 h): < 1000 nM

SMILES: N#Cc1ccc(-c2cnn3ccc(-c4ccc(C(=O)N5CCCOCC5)cc4)nc23)cc1 [Example 181, 4-(5-(4-(1,4-oxazepane-4-carbonyl)phenyl)pyrazolo[1,5-a]pyrimidin-3-yl)benzonitrile]
IC50 [2, 5]: < 1000 nM

SMILES: N#Cc1ccc(-c2cnn3ccc(-c4ccc(C(=O)N5CCNCC5)cc4)nc23)cc1 [Example 183, 4-(5-(4-(piperazine-1-carbonyl)phenyl)pyrazolo[1,5-a]pyrimidin-3-yl)benzonitrile]
IC50 [2, 5]: < 1000 nM

SMILES: CC(=O)N1CCN(C(=O)c2ccc(-c3ccn4ncc(-c5ccc(C#N)cc5)c4n3)cc2)CC1 [Example 184]
IC50 [2, 5]: < 1000 nM

SMILES: N#Cc1ccc(-c2cnn3ccc(-c4ccc(C(=O)N5CCOCC5)cc4)nc23)cc1 [Example 185, 4-(5-(4-(morpholine-4-carbonyl)phenyl)pyrazolo [1,5-a]pyrimidin-3-yl)benzonitrile]
IC50 [2, 5]: < 1000 nM

SMILES: CC(=O)NC1CCN(C(=O)c2ccc(-c3ccn4ncc(-c5ccc(C#N)cc5)c4n3)cc2)CC1 [Example 186, N-(1-(4-(3-(4-cyanophenyl)pyrazolo[1,5-a]pyrimidin-5-yl)benzoyl)piperidin-4-yl)acetamide]
IC50 [2, 5]: < 1000 nM

SMILES: N#Cc1ccc(-c2cnn3ccc(-c4ccc(C(=O)N5CCOCC5)c(O)c4)nc23)cc1 [Example 187, 4-(5-(3-hydroxy-4-(morpholine-4-carbonyl)phenyl)pyrazolo [1,5-a]pyrimidin-3-yl)benzonitrile]
IC50 [2, 5]: < 1000 nM

SMILES: N#Cc1ccc(-n2cnc3ccc(-c4ccc(C(=O)N5CCOCC5)cc4)cc32)cc1 [Example 190, 4-(6-(4-(morpholine-4-carbonyl)phenyl)-1H-benzo[d]imidazol-1-yl)benzonitrile]
IC50 ([2]; HeLa, 2 h): < 1000 nM
